For 13 compounds, TGI results are on record in PubChem BioAssay (NCI).

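Briefly, cells in 96-well plates were exposed to five compound concentrations for 48 h, and endpoints were estimated by linear interpolation. TGI is the concentration that stops growth completely.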 Bounds are passed on as bounds.

The first test has as its system NCI-H460 lung. The test can be described thus: NCI anticancer screen, dose series, 48 h.
`Cc1c(C)n(-c2ccccc2)c2nc(S(C)(=O)=O)nc(S(C)(=O)=O)c12` gave a TGI of 37.1 µM.

In turn, `CC(=O)O[C@H]1CC[C@@]2(C)C(=CC[C@@H]3[C@@H]2CC[C@]2(C)NC(=O)/C(=C\c4ccccc4)C[C@@H]32)C1` showed a TGI of 95.3 µM.

In the case of `O=C(CCc1cc(O)ccc1O)OCCc1ccccc1`, the TGI was above 100 µM.

As to `O=C(N[C@@H](c1ccccc1)[C@@H](O)C(=O)OCc1ccc([N+](=O)[O-])cc1)c1ccccc1`, the TGI was above 100 µM.

Take `Cc1c(O)c(OC2OC(CO)C(O)C(O)C2O)cc2c1CC[C@@H]1C2(C)C(=O)C[C@]2(C)[C@@H]([C@@](C)(O)C(=O)CCC(C)(C)O)[C@H](O)C[C@@]12C` (stereo not given in full): the TGI is above 100 µM.

`O=c1oc2ccccc2cc1-c1cn2ccccc2n1` gave a TGI of 13.4 µM.

The compound `Cn1c(=O)oc2cc(C(O)CN3CCN(Cc4ccccn4)CC3)c(Cl)cc21` (stereo not given) yielded a TGI above 100 µM.

Regarding `O=C(NCCCl)N(O)C(=O)Nc1ccccc1`, the TGI is above 100 µM.

For `COC(=O)[C@H](Cc1c[nH]c2ccccc12)NC(=O)c1ccc(CNC(=O)/C(C)=C/c2ccccc2)cc1`, the TGI is above 100 µM.

Turning to `C/C(=N/NC(=S)Nc1ccc(Cl)cc1)c1cccc(/C(C)=N\NC(=S)Nc2ccc(Cl)cc2)n1`, the TGI is 56.4 µM.

Regarding `COC(=O)C1(C(=O)OC)C/C(C)=C(/C)SCCCS1`, the TGI is above 100 µM.

As to `CC1(C)CC(=O)C(C=NC(=O)c2ccncc2)=C(O)C1`, the TGI was above 100 µM.

For `O=C(O/C=C\OC1CCCC1(c1ccccc1)c1ccccc1)c1ccccc1` (stereo not given), the TGI was 88.8 µM.

A further test has as its system SF-539 CNS. Put plainly: NCI anticancer screen, dose series, 48 h.
`Cc1c(C)n(-c2ccccc2)c2nc(S(C)(=O)=O)nc(S(C)(=O)=O)c12` returned a TGI of 27 µM.

Regarding `CC(=O)O[C@H]1CC[C@@]2(C)C(=CC[C@@H]3[C@@H]2CC[C@]2(C)NC(=O)/C(=C\c4ccccc4)C[C@@H]32)C1`, the TGI turned out to be 31.1 µM.

`O=C(CCc1cc(O)ccc1O)OCCc1ccccc1` registered a TGI of 14.9 µM.

With `O=C(N[C@@H](c1ccccc1)[C@@H](O)C(=O)OCc1ccc([N+](=O)[O-])cc1)c1ccccc1`, the TGI was above 100 µM.

In turn, `Cc1c(O)c(OC2OC(CO)C(O)C(O)C2O)cc2c1CC[C@@H]1C2(C)C(=O)C[C@]2(C)[C@@H]([C@@](C)(O)C(=O)CCC(C)(C)O)[C@H](O)C[C@@]12C` (stereo not given in full) registered a TGI above 100 µM.

`O=c1oc2ccccc2cc1-c1cn2ccccc2n1` came in with a TGI of 10.6 µM.

Regarding `Cn1c(=O)oc2cc(C(O)CN3CCN(Cc4ccccn4)CC3)c(Cl)cc21` (stereo not given), the TGI is above 100 µM.

Take `O=C(NCCCl)N(O)C(=O)Nc1ccccc1`: the TGI is above 100 µM.

`COC(=O)[C@H](Cc1c[nH]c2ccccc12)NC(=O)c1ccc(CNC(=O)/C(C)=C/c2ccccc2)cc1` displayed a TGI above 100 µM.

For the compound `C/C(=N/NC(=S)Nc1ccc(Cl)cc1)c1cccc(/C(C)=N\NC(=S)Nc2ccc(Cl)cc2)n1`, the TGI was 10.6 µM.

With `COC(=O)C1(C(=O)OC)C/C(C)=C(/C)SCCCS1`, the TGI was above 100 µM.

`CC1(C)CC(=O)C(C=NC(=O)c2ccncc2)=C(O)C1` showed a TGI above 100 µM.

Compound `O=C(O/C=C\OC1CCCC1(c1ccccc1)c1ccccc1)c1ccccc1` (stereo not given) registered a TGI of 13.5 µM.

The next test concerns HCT-116 colon. The test can be described thus: NCI anticancer screen, dose series, 48 h.
`Cc1c(C)n(-c2ccccc2)c2nc(S(C)(=O)=O)nc(S(C)(=O)=O)c12`: the TGI turned out to be 2.98 µM.

`CC(=O)O[C@H]1CC[C@@]2(C)C(=CC[C@@H]3[C@@H]2CC[C@]2(C)NC(=O)/C(=C\c4ccccc4)C[C@@H]32)C1` had a TGI of 46.9 µM.

As to `O=C(CCc1cc(O)ccc1O)OCCc1ccccc1`, the TGI was 27.3 µM.

`O=C(N[C@@H](c1ccccc1)[C@@H](O)C(=O)OCc1ccc([N+](=O)[O-])cc1)c1ccccc1` showed a TGI above 100 µM.

With `Cc1c(O)c(OC2OC(CO)C(O)C(O)C2O)cc2c1CC[C@@H]1C2(C)C(=O)C[C@]2(C)[C@@H]([C@@](C)(O)C(=O)CCC(C)(C)O)[C@H](O)C[C@@]12C` (stereo not given in full), the TGI is above 100 µM.

Regarding `O=c1oc2ccccc2cc1-c1cn2ccccc2n1`, the TGI came out at 30.1 µM.

As for `Cn1c(=O)oc2cc(C(O)CN3CCN(Cc4ccccn4)CC3)c(Cl)cc21` (stereo not given), the TGI was above 100 µM.

`O=C(NCCCl)N(O)C(=O)Nc1ccccc1` showed a TGI above 100 µM.

Take `COC(=O)[C@H](Cc1c[nH]c2ccccc12)NC(=O)c1ccc(CNC(=O)/C(C)=C/c2ccccc2)cc1`: the TGI is above 100 µM.

In turn, `C/C(=N/NC(=S)Nc1ccc(Cl)cc1)c1cccc(/C(C)=N\NC(=S)Nc2ccc(Cl)cc2)n1` displayed a TGI of 22.4 µM.

Take `COC(=O)C1(C(=O)OC)C/C(C)=C(/C)SCCCS1`: the TGI is above 100 µM.

The compound `CC1(C)CC(=O)C(C=NC(=O)c2ccncc2)=C(O)C1` had a TGI above 100 µM.

`O=C(O/C=C\OC1CCCC1(c1ccccc1)c1ccccc1)c1ccccc1` (stereo not given) displayed a TGI of 6.52 µM.

Another test deals with UACC-62 melanoma. Put plainly: NCI anticancer screen, dose series, 48 h.
In the case of `Cc1c(C)n(-c2ccccc2)c2nc(S(C)(=O)=O)nc(S(C)(=O)=O)c12`, the TGI was found to be 17.6 µM.

On to `CC(=O)O[C@H]1CC[C@@]2(C)C(=CC[C@@H]3[C@@H]2CC[C@]2(C)NC(=O)/C(=C\c4ccccc4)C[C@@H]32)C1`, for which the TGI is 33.1 µM.

Take `O=C(CCc1cc(O)ccc1O)OCCc1ccccc1`: the TGI was 33.9 µM.

With `O=C(N[C@@H](c1ccccc1)[C@@H](O)C(=O)OCc1ccc([N+](=O)[O-])cc1)c1ccccc1`, the TGI is above 100 µM.

For the compound `Cc1c(O)c(OC2OC(CO)C(O)C(O)C2O)cc2c1CC[C@@H]1C2(C)C(=O)C[C@]2(C)[C@@H]([C@@](C)(O)C(=O)CCC(C)(C)O)[C@H](O)C[C@@]12C` (stereo not given in full), the TGI is above 100 µM.

Regarding `O=c1oc2ccccc2cc1-c1cn2ccccc2n1`, the TGI is 15.8 µM.

Turning to `Cn1c(=O)oc2cc(C(O)CN3CCN(Cc4ccccn4)CC3)c(Cl)cc21` (stereo not given), the TGI is above 100 µM.

In turn, `O=C(NCCCl)N(O)C(=O)Nc1ccccc1` returned a TGI above 100 µM.

The compound `COC(=O)[C@H](Cc1c[nH]c2ccccc12)NC(=O)c1ccc(CNC(=O)/C(C)=C/c2ccccc2)cc1` displayed a TGI of 41.7 µM.

`C/C(=N/NC(=S)Nc1ccc(Cl)cc1)c1cccc(/C(C)=N\NC(=S)Nc2ccc(Cl)cc2)n1` showed a TGI of 43.1 µM.

For the compound `COC(=O)C1(C(=O)OC)C/C(C)=C(/C)SCCCS1`, the TGI was above 100 µM.

The compound `CC1(C)CC(=O)C(C=NC(=O)c2ccncc2)=C(O)C1` yielded a TGI above 100 µM.

`O=C(O/C=C\OC1CCCC1(c1ccccc1)c1ccccc1)c1ccccc1` (stereo not given) registered a TGI of 16.8 µM.

The test system of another test is NCI-H226 lung. The test can be described thus: NCI anticancer screen, dose series, 48 h.
For the compound `Cc1c(C)n(-c2ccccc2)c2nc(S(C)(=O)=O)nc(S(C)(=O)=O)c12`, the TGI was found to be 47.4 µM.

`CC(=O)O[C@H]1CC[C@@]2(C)C(=CC[C@@H]3[C@@H]2CC[C@]2(C)NC(=O)/C(=C\c4ccccc4)C[C@@H]32)C1` came in with a TGI of 40.8 µM.

The compound `O=C(CCc1cc(O)ccc1O)OCCc1ccccc1` returned a TGI above 76.3 µM.

As to `O=C(N[C@@H](c1ccccc1)[C@@H](O)C(=O)OCc1ccc([N+](=O)[O-])cc1)c1ccccc1`, the TGI was above 100 µM.

`Cc1c(O)c(OC2OC(CO)C(O)C(O)C2O)cc2c1CC[C@@H]1C2(C)C(=O)C[C@]2(C)[C@@H]([C@@](C)(O)C(=O)CCC(C)(C)O)[C@H](O)C[C@@]12C` (stereo not given in full): the TGI is above 100 µM.

The compound `O=c1oc2ccccc2cc1-c1cn2ccccc2n1` displayed a TGI of 26.7 µM.

For the compound `Cn1c(=O)oc2cc(C(O)CN3CCN(Cc4ccccn4)CC3)c(Cl)cc21` (stereo not given), the TGI is above 100 µM.

Compound `O=C(NCCCl)N(O)C(=O)Nc1ccccc1` gave a TGI above 100 µM.

In the case of `COC(=O)[C@H](Cc1c[nH]c2ccccc12)NC(=O)c1ccc(CNC(=O)/C(C)=C/c2ccccc2)cc1`, the TGI was above 100 µM.

`C/C(=N/NC(=S)Nc1ccc(Cl)cc1)c1cccc(/C(C)=N\NC(=S)Nc2ccc(Cl)cc2)n1` displayed a TGI of 47.5 µM.

As to `COC(=O)C1(C(=O)OC)C/C(C)=C(/C)SCCCS1`, the TGI is above 100 µM.

The compound `CC1(C)CC(=O)C(C=NC(=O)c2ccncc2)=C(O)C1` gave a TGI above 100 µM.

The compound `O=C(O/C=C\OC1CCCC1(c1ccccc1)c1ccccc1)c1ccccc1` (stereo not given) registered a TGI of 43.2 µM.
